# Experimental data reported in article PMC6155299, “Synthesis and Evaluation of New Pyrazoline Derivatives as Potential Anticancer Agents in HepG-2 Cell Line” (Molecules : A Journal of Synthetic Chemistry and Natural …, 2017).
# Experiments:
# [1] = system: HepG-2 cells; test: Annexin-V assay (annexin V/PI flow cytometry); format: cell-based, human; conditions: 12 h
# Method: Approximately 1.5 × 10^5 HepG-2 cells/well were plated in 6-well plates and allowed to adhere. After 24 h, the medium was replaced with fresh culture medium containing compound b17 at final concentrations of 0 µM, 0.9 µM, 2.7 µM, and 4.5 µM. Cells were harvested after 12 h. The cells were trypsinized, washed in phosphate-buffered saline (PBS), and centrifuged at 1000 rpm for 5 min. The cells were then resuspended in 200 µL of staining solution (containing 10 µL PI and 5 µL Annexin V–PE in binding buffer), mixed gently, and incubated for 15 min at 25 °C in the dark. The samples were later analyzed with a BD Accuri™ C6 flow cytometer.
# [2] = system: HepG-2 cells; test: Cell cycle analysis by flow cytometry (PI); format: cell-based, human; conditions: 24 h
# Method: Based on the results of the cytotoxicity assay, compound b17 was selected for further mechanistic study with HepG-2 cells. For flow cytometry analysis of DNA content, approximately 1.5 × 10^5 HepG-2 cells/well in exponential growth mode were plated in 6-well plates and allowed to adhere, then treated with different concentrations of compound b17 for 24 h. After incubation, the cells were collected, centrifuged, and fixed with ice-cold ethanol (70%). The cells were treated with RNase A and stained with PI. Samples were analyzed on a BD Accuri C6 flow cytometer (BD, New York, NY, USA). DNA histograms were analyzed using ModFit for Windows.
# [3] = system: primary hepatocytes; test: MTS assay, cytotoxicity against primary hepatocytes; format: cell-based, rat
# Method: (§1) Primary hepatocytes were isolated from male SD rats weighing 250–300 g using a modified in situ collagenase perfusion method and then the cells were cultured in Dulbecco’s Modified Eagle’s Medium (DMEM) with 2 g/L bovine serum albumin (BSA) and 50 mg/L gentamicin. HepG-2 cells were incubated in RPMI 1640 medium supplemented with 10% fetal bovine serum (FBS) and 1% penicillin–streptomycin liquid. Cells were incubated at 37 °C in a humidified atmosphere of 95% air and 5% CO2. Stock solutions of compounds and cisplatin were prepared in dimethyl sulfoxide (DMSO), then added to fresh culture medium to obtain final concentrations.
# The cytotoxicological activity of compounds b5, b9, and b14–18 were evaluated against primary hepatocytes using the MTS assay (Cell Titer 96® Aqueous Cell Proliferation Assay, Promega, Cat. No. G5421) as a fast and sensitive quantification of cell proliferation and viability. The concentrations of compounds were prepared in seven different concentrations (2.5 µM, 5 µM, 10 µM, 20 µM, 40 µM, 80 µM, 160 µM). Cells were seeded into 96-well plates at a density of 26,000 cells/well. The plates were incubated for 24 h prior to any treatment. At the end of this period, the medium was removed and 100 µL of different concentrations of pyrazoline derivatives were added to wells for 48 h. Following the exposure period, 20 μL of the combined MTS/PMS solution was added to cells and incubated for a further 2 h at 37 °C, then the absorbance was recorded at 490 nm using an ELISA Plate Reader (ELISA, Emeryville, CA, USA). The values of IC50, the effective concentration at which 50% of the primary hepatocytes were inhibited, were calculated to evaluate the cytotoxic activities.
# [4] = system: HepG-2 cells; test: MTT assay, cytotoxic effects on HepG-2 cells; format: cell-based, human; conditions: Homo sapiens, HepG2, HepG-2 cell line, 48 h, read-out: IC50 HepG-2
# Method: as §1
# Next, compounds b14 and b18 were prepared in five different concentrations (20 µM, 40 µM, 60 µM, 80 µM, 100 µM), and compounds b15, b16, and b17, along with cisplatin, were prepared in seven different concentrations (2.5 µM, 5 µM, 7.5 µM, 10 µM, 20 µM, 40 µM, 60 µM). A suspension of growing cells (50,000/mL) was prepared, and 100 µL/well dispensed into 96-well plates, yielding a density of 5000 cells/well. The cells were incubated for 24 h before adding the pyrazoline derivatives. The optimal cell number for cytotoxicity assays was determined in preliminary experiments. At the end of the incubation period, the medium was removed and 100 µL of different concentrations of pyrazoline derivatives were added to wells for 24 h and 48 h. Following the exposure period, 20 µL of MTT (5 mg/mL) were added to cells and incubated for a further 4 h at 37 °C. The medium was removed and the formazan crystals were solubilized by adding 150 µL DMSO to each well. After 10 min of shaking, the absorbance was measured at 550 nm using a FilterMax F5 Multi-Mode Microplate Reader (Energy Chemical, Shanghai, China). Cells were treated with each compound with four replicates per concentration, and each experiment was conducted at least three times. Dose–inhibition rate curves and IC50 values, defined as the drug concentrations which reduced absorbance to 50% of control values, were then generated.
smiles,measurement,setting,value
"COc1cc(C2CC(c3ccccc3O)=NN2C(=O)c2cc3ccccc3s2)cc(OC)c1O (stereo not drawn) [b17, Benzo[b]thiophen-2-yl-[5-(4-hydroxy-3,5-dimethoxyphenyl)-3-(2-hydroxyphenyl)-4,5-dihydro-pyrazol-1-yl]-methanone]",percentage of cell apoptosis,"[1]; HepG-2, 0.9 µM",7.6%
same,percentage of cell apoptosis,"[1]; HepG-2, 2.7 µM",8.7%
same,percentage of cell apoptosis,"[1]; HepG-2, 4.5 µM",10.2%
same,cells in G1 phase (Dip G1),"[2]; HepG-2, 0.9 µM",56.88%
same,cells in G2/M phase (Dip G2),"[2]; HepG-2, 0.9 µM",16.90%
same,cells in S phase (Dip S),"[2]; HepG-2, 0.9 µM",26.22%
same,cells in G1 phase (Dip G1),"[2]; HepG-2, 2.7 µM",33.02%
same,cells in G2/M phase (Dip G2),"[2]; HepG-2, 2.7 µM",41.50%
same,cells in S phase (Dip S),"[2]; HepG-2, 2.7 µM",25.48%
same,cells in G1 phase (Dip G1),"[2]; HepG-2, 4.5 µM",3.11%
same,cells in S phase (Dip S),"[2]; HepG-2, 4.5 µM",13.89%
same,IC50,"[3]; Rattus norvegicus, Hepatocyte, 48 h",33.5 ± 2.33 µM
same,cytotoxicity against primary hepatocytes (in words),[3]; compared with HepG-2,low cytotoxicity
same,IC50,[4],3.57 ± 1.39 µM
same,melting point,,169.2 to 170.1 °C
